Results taken from patent publication US20020086835A1, “Use of adenosine deaminase inhibitors to treat systemic inflammatory response syndrome” (priority 2000, published 2002).
Where “and” joins values, the source holds several entries; their conditions need not be identical. Identical values can stand only once. Entries after “also recorded” stand apart in the source; their conditions may differ.

How the values were obtained:
TNF-α = experiment: Serum TNF-α by ELISA in rats with chronic peritoneal sepsis (200 mg/kg cecal slurry ip); assay type: in vivo, rat; conditions: septic rats
Procedure: (§1) Studies were conducted to determine if manipulation of adenosine-mediated events would result in alterations in the TNF-α response in this model. At the time of sepsis induction, rats were treated in one of four ways. One group received only 0.9% normal saline as a vehicle control (No Rx; n=6). […] The third group received the adenosine deaminase inhibitor, erythro-9-(2-hydroxy-3-nonyl)adenine (EHNA; 1 μmole/kg+1 μmole/kg/hr; iv; n=3). A fourth group received the adenosine receptor antagonist 8-sulfophenyltheophylline (SPT; 400 μg/kg/8 hours; n=5).
(§2) Sepsis was induced under pentobarbital anesthesia (50 mg/kg) in each rat by intraperitoneal (ip) injection of 200 mg/kg rat cecal contents mixed as a slurry in 5% dextrose in water (D5W). […] Non-septic controls received an equivalent volume ip injection of D5W. Polyethylene catheters (Intramedic PE-50, Baxter) were inserted into the right internal jugular vein and right carotid artery. The jugular catheter was used for venous access (drug infusions; volume replacement, etc). The carotid catheter was used to obtain arterial blood samples, and to monitor arterial blood pressure and heart rate. The catheters were secured in their respective vessels, tunneled subcutaneously to exit in the interscapular region, and filled with heparinized saline (50 units/ml 0.9% normal saline). Incisions were closed in layers using 3-0 silk. Rats were allowed to recover from anesthetic and provided food and water ad libitum,
Serum and tissue tumor necrosis factor-α (TNF-α) concentrations were determined by enzyme-linked immunosorbant assay. Samples of serum, liver, and spleen were collected, rapidly weighed, and frozen in liquid nitrogen. On the day of assay, tissues are added to labeled tubes containing lysis buffer (volume=10 ml/gram wt. with 1:10 dilution) and kept on ice. The lysis buffer is 20 mM Tris (pH 7.4) containing […] phenylmethylsulfonylflouride (PMSF), […] leupeptin, 0.7 g/ml pepstatin, and 2.0 g/ml aprotinin to inhibit proteases. Samples were immediately homogenized using five 3 see bursts, washing grinding pistol (3×) between samples with phosphate buffered saline. Samples are then centrifuged for 20 min at 2200 RPM, 4° C. The supernatant was removed and used for TNF-α measurements. Briefly, each microplate well contained 50 μl of assay diluent. To each well, 50 μl of standard, control, or serum/homogenate supernatant sample were added and mixed on an orbital plate shaker. Plates were incubated at room temperature for 2 hours. Each well was then aspirated and washed with wash buffer 4 times. After final aspiration of wash buffer, 100 μl of rat TNF-α conjugate was added to each well. Wells were then covered and incubated for 2 hours at room temperature. At the end of the incubation, the aspiration/wash procedure was repeated 4 times, after which 100 μl of stabilized chromogen solution was added to each well. Next, plates were incubated for 45 minutes at room temperature in a dark area. After this final incubation period, 100 μl stopping solution was added to each well. Optical density of each well at […] was determined within 30 minutes using a Biotek Instruments EL312e microtiter plate reader. Concentrations of TNF-α were calculated from the standard curves.
At the time of sepsis induction, rats were treated in one of three ways. One group received only 0.9% normal saline as a vehicle control (VEH, n=6, where n is the number of rats). […] A third group received the adenosine receptor antagonist, 8-sulfophenyltheo-phylline (SPT; 400 μg/kg/8 h; n=5). Serum TNF-α (pg/ml) was determined at 4 and 24 hours after sepsis induction by ELISA.
Male SD rats (350-400 g) were made septic by IP introduction of a 200 mg/kg cecal slurry. […] TNF-α (pg/ml) was determined at 4 and 24 hours after sepsis induction by ELISA.

adenosine receptors = experiment: Regional vascular resistance by radiolabelled microspheres 24 hours after sepsis induction; assay type: in vivo, rat; conditions: septic rats
Procedure: Systemic vascular responses were examined 24 hours after induction of sepsis in the presence or absence of adenosine receptor blockade in septic and non-septic rats using radiolabelled microspheres. For these experiments, the surgical procedure involving vascular access was modified to include a catheter in the left ventricle of the heart (via the carotid artery), and a catheter in the tail artery (Intramedic PE-50, Baxter) to permit reference blood withdrawal and blood pressure monitoring. Regional blood flows were determined using radiolabelled microspheres. The microspheres ([…] New England Nuclear, Boston), labeled with one of four isotopes (^46Sc, ^85Sr, ^95Nb, ^141Ce), were mixed in 0.9% normal saline with 0.01 % Tween-80 added to prevent aggregation. The microspheres were adjusted to provide a minimum of 400 microspheres per tissue sample, and represented approximately 100,000-250,000 spheres per injection. The specific Isotopes and their order of injection were randomized in each experiment. with each injection representing a volume of 0.4 ml/injectate. The microspheres were sonicated for a minimum of 30 minutes, and vortexed vigorously for at least 30 seconds prior to injection. A reference withdrawal sample was taken at 0.33 ml/min from the tail artery catheter using a mechanical pump (Harvard Model 22). The reference withdrawal was started 10 seconds prior to injecting the isotopes, and continued for 150 seconds. […] Wet weights were obtained and all tissues were counted in a gamma spectrophotometer (Beckman 9000). Gamma activity in the injectate vials was counted prior to the experiments. Actual injected amounts for each isotope were calculated by subtracting any isotope counts remaining in the vials, syringes, and catheters used for injection. Cardiac output (CO) was determined by dividing the total injectate counts for any given isotope by the counts in the reference sample and multiplying by the fixed withdrawal rate of the reference sample. The results for cardiac output are expressed as ml/min. Tissue counts attributed to each isotope were determined after subtracting the overlap of energy spectra from higher energy isotopes (Compton back-scatter). Individual tissue blood flows were determined by dividing the counts obtained in the tissue by the reference withdrawal counts and multiplying by the reference withdrawal rate. Tissue blood flows were then normalized to wet weight was calculated by adding the individual tissue blood flows of the stomach, small intestine, cecum, colon, pancreas, hepatic artery and spleen, and dividing by the liver weight. Regional tissue vascular resistances were calculated from regional blood flows and arterial blood pressure, according to the equation: […]

septic rats [1] = experiment: Survival of septic rats to day 3; assay type: in vivo, rat; conditions: pentostatin 5 mg/kg/12 h; 8-SPT 400 μg/kg/8 h; 3 days post-sepsis
Procedure: as §1
as §2, with “The catheters were secured in their respective vessels, tunneled subcutaneously to exit in the interscapular region, and filled with heparinized saline (50 units/ml 0.9% normal saline). Incisions were closed in layers using 3-0 silk. Rats were allowed to recover from anesthetic and provided food and water ad libitum,” left out
(§3) At the time of sepsis induction, rats were treated in one of three ways. […] Serum TNF-α (pg/ml) was determined at 4 and 24 hours after sepsis induction by ELISA.

septic rats [2] = experiment: Capillary leakage: examination of peritoneal cavity and bowel of septic rats; assay type: in vivo, rat
septic rats [3] = experiment: Blood pressure and heart rate in septic rats; conditions: chronic treatment
Procedure: as §1
as §2, with “The catheters were secured in their respective vessels, tunneled subcutaneously to exit in the interscapular region, and filled with heparinized saline (50 units/ml 0.9% normal saline). Incisions were closed in layers using 3-0 silk. Rats were allowed to recover from anesthetic and provided food and water ad libitum,” left out
as §3

adenosine deaminase = target: T1, adenosine deaminase (Homo sapiens, UniProt P00813); conditions: FIG. 10 legend; cited from earlier work
T1 sequence (P00813 1-363): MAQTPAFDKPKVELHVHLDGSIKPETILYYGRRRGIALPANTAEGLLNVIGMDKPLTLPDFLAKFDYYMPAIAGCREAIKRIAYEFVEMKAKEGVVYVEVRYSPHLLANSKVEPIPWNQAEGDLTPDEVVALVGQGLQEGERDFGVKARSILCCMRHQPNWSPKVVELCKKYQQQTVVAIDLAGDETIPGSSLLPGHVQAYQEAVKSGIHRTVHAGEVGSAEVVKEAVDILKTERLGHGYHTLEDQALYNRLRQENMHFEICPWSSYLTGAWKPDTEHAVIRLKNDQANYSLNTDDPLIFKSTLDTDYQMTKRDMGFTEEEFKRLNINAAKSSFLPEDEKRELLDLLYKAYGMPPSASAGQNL

Compound	Effect on serum TNF-α response to sepsis at 4 hours (TNF-α; 4 hours, versus saline-treated septic group)	Effect on serum TNF-α response to sepsis at 24 hours (TNF-α; 24 hours, versus saline-treated septic group)	Serum TNF-α at 4 hours after sepsis induction (TNF-α; treated at time of sepsis induction, 4 hours) [pg/mL]	Serum TNF-α at 24 hours after sepsis induction (TNF-α; treated at time of sepsis induction, 24 hours) [pg/mL]	Brain (cerebral) vascular resistance (adenosine receptors)	Septic rats surviving to day 3 (septic rats [1])	Capillary leakage (septic rats [2])	Small bowel hemorrhage (septic rats [2])	Volume of fluid in the peritoneal cavity (septic rats [2]; untreated 2-3 ml) [mL]	Blood pressures or heart rates versus saline-treated septic rats (septic rats [3])	Enzyme-inhibitory activity against adenosine deaminase (adenosine deaminase)
8-sulfophenyltheophylline [8-SPT]	not at 4 hours	amplified the response	1167 ± 428	2479 ± 875	exception of changes in cerebral vascular resistance	2 of the 5 and 1 of 5	exacerbation of capillary leakage	small bowel hemorrhaging was evident	3 to 5	neither the adenosine deaminase inhibition nor the 8-SPT groups were blood pressures or heart rates significantly different; also recorded: neither the groups treated with pentostatin nor the groups treated with 8-SPT were blood pressures or heart rates significantly different	
OCC1OC(n2cnc3c2N=CNCC3O)C(F)C1O (stereo not drawn) [2′-deoxy-2′-fluorocoformycin]											high enzyme-inhibitory activities
OC[C@H]1O[C@@H](n2cnc3c2N=CNC[C@@H]3O)[C@H](F)[C@@H]1O [2′-deoxy-8-epi-2′-fluorocoformycin]											high enzyme-inhibitory activities
